The text below walks through data of PubChem BioAssay (NCI).

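Grown in 96-well plates, cells were treated for 48 hours with each compound at five concentrations. Insufficient inhibition: endpoint recorded as highest concentration tested. Abbreviation: GI50, concentration required for 50% inhibition of growth. At the TGI there is no net growth.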 Some results are limits rather than exact numbers.

Among the test systems are HOP-62 NSCLC; HOP-92 NSCLC; K-562 leukemia; LOX IMVI melanoma; NCI-H226 lung; RXF 393 renal; SF-295 CNS; SK-OV-3 ovarian; SW-620 colon; U251 CNS.
Common to all, as to test: growth of human tumour cells (NCI), 48 h

With `CCCCCCCCCCC(O)C1CCC(C(O)CCC(O)C2CCC(CCCCCCC[C@H](O)CC3=C[C@@H](C)OC3=O)O2)O1` (some centres not stated), the TGI was > 100 µM with HOP-62 NSCLC; > 100 µM with HOP-92 NSCLC; > 100 µM in the test with K-562 leukemia; > 100 µM in the test with LOX IMVI melanoma; 40.4 µM in the test on NCI-H226 lung; 33.9 µM in the test on RXF 393 renal. Besides, the TGI in the test with SF-295 CNS is > 100 µM; with SK-OV-3 ovarian, > 66.1 µM; in the test on SW-620 colon, > 100 µM; in the test with U251 CNS it was > 100 µM. In addition, the GI50 in the test on K-562 leukemia was 2.18 µM; in the test with LOX IMVI melanoma, 2.24 µM; in the test on SW-620 colon, 9.3 µM.

Turning to `COc1ccc2c(CN3CCC[C@H]3C(=O)O)cc3cc4c(cc3c2c1)OCO4`, the GI50 in the test on HOP-62 NSCLC was 19.4 µM; with HOP-92 NSCLC, 17.4 µM; with K-562 leukemia it was 20.2 µM; with LOX IMVI melanoma, 5.06 µM; in the test on NCI-H226 lung, 17 µM; in the test with RXF 393 renal, 6.81 µM. Moreover, the GI50 in the test on SF-295 CNS is 8.88 µM; in the test on SK-OV-3 ovarian it was 14.6 µM; in the test with SW-620 colon, 5.15 µM; with U251 CNS it was 13.2 µM. Also, the TGI was 86.1 µM in the test with HOP-62 NSCLC; 82.5 µM in the test with HOP-92 NSCLC; > 100 µM in the test with K-562 leukemia; 43.6 µM in the test with LOX IMVI melanoma; > 100 µM in the test on NCI-H226 lung; 23.2 µM in the test with RXF 393 renal. For the same compound, the TGI was 39.4 µM in the test with SF-295 CNS, 51.1 µM in the test on SK-OV-3 ovarian, 70.4 µM in the test on SW-620 colon and > 100 µM with U251 CNS.

Turning to `C=C[C@H]1CCC/C=C/[C@@H]2C[C@H](O)C[C@H]2[C@H](O)/C=C/C(=O)O1`, the GI50 in the test on HOP-62 NSCLC is 0.0488 µM; with HOP-92 NSCLC, 0.0289 µM; in the test on K-562 leukemia, 0.0478 µM; in the test on LOX IMVI melanoma, 0.0222 µM; in the test with NCI-H226 lung, < 0.0125 µM; with RXF 393 renal, < 0.0137 µM. Further, the GI50 was 0.0537 µM with SF-295 CNS, 0.0406 µM with SK-OV-3 ovarian, 0.0275 µM in the test with SW-620 colon and 0.0428 µM with U251 CNS. For the same compound, the TGI was 2.99 µM with HOP-92 NSCLC; > 100 µM in the test with K-562 leukemia; 0.0528 µM with LOX IMVI melanoma; 0.0289 µM in the test with NCI-H226 lung; < 0.0193 µM in the test on RXF 393 renal; > 100 µM in the test with SF-295 CNS. For the same compound, the TGI is > 93.5 µM with SK-OV-3 ovarian, 0.0949 µM in the test with SW-620 colon and > 100 µM in the test on U251 CNS.
